Data reported in article PMC7595150, “Amorphous solid dispersions of enzalutamide and novel polysaccharide derivatives: investigation of relationships between polymer structure and performance” (Scientific Reports, 2020).
Converted amounts (≈) assume the structure as drawn. Marks after values point to notes of the source that are not given here.

Legend:
[1] = cited from earlier work
[2] = Nucleation induction time of supersaturated enzalutamide solutions with pre-dissolved polymer (UV dip probe); type: physicochemical; conditions: absence of polymers; initial 70 μg/mL enzalutamide, pH 6.5 phosphate buffer, 37 °C
Protocol: The average time to detect the onset of crystallization for supersaturated solutions of enzalutamide was determined in phosphate buffer (pH 6.5, 50 mM) containing pre-dissolved polymer using an in situ UV dip probe as described by Mosquera-Giraldo et al.[11]. […] For enzalutamide the absorbance maximum is 237 nm and the baseline wavelength used was 446 nm. […] Next, a methanolic solution of enzalutamide (245 µL, 10 mg/mL) was added to the polymeric solution (35 mL) magnetically stirred at 300 rpm and maintained at 37 °C, leading to an initial enzalutamide concentration of 70 µg/mL. The experiments were performed in triplicate.

[3] = Aqueous solubility; type: physicochemical

- Nucleation induction time [2]: ~ 15 min
- Supersaturation ratio (S, amorphous solubility/crystalline solubility) [3]: approximately 14.5
- solubility ([3]; crystalline form): 2.9 µg/mL (≈ 6.24 µM)
SMILES: CNC(=O)c1ccc(N2C(=S)N(c3ccc(C#N)c(C(F)(F)F)c3)C(=O)C2(C)C)cc1F [Enzalutamide]
- Aqueous solubility (amorphous solubility) ([1]; amorphous solubility of the drug): 0.042^a mg/mL
- Free drug molecularly dissolved ([1]; when 70 μg/mL enzalutamide is added to buffer, rest is colloidal amorphous aggregates): approximately 42 μg/mL
